Test results taken from patent US4031218A, “7-(2,3-Dihydroxypropyl-1,3-di-n-propylxanthine and a pharmaceutical composition containing same useful as a bronchial muscle relaxant” (Mallinckrodt, Inc., priority 1976, dated 1977).
≈ marks a conversion by molar mass, not a printed value. Entries after “also recorded” stand apart in the source; their conditions may differ.

Assays:
[1] = test system: guinea pig tracheal strip; test: Isolated trachea preparation (in vitro tracheal strip), pilocarpine-contracted; assay type: cell-based; conditions: relative to theophylline = 1.00, molar basis
Procedure: With the exception of theophylline, all compounds were administered as the free base dissolved or suspended in appropriate aqueous vehicles. […] The ethylenediamine portion of the molecule is pharmacologically inert, but renders solubility and convenience of use (Simons et al., S. Med. Journ. 68:802, 1975). For the purpose of comparison, aminophylline was considered to contain 80% free theophylline by weight (Piafsky and Ogilvie, New England J. Med. 292: 1218, 1975). Final comparisons were always based on the calculated dose of theophylline. Because of obvious differences in molecular weights, all compounds were compared on a molar basis rather than on absolute weight.
1. Isolated Trachea Preparation
The in vitro bronchodilator activity of each compound was estimated on the spirally cut guinea pig tracheal strip preparation as described by Constantine, (J. Pharm. Pharmacol. 17:384, 1965). Large Camm English Short Hair male guinea pigs (800-1200 gm.) were employed in order to obtain three spiral tracheal strips from one animal. Strips were suspended in 50 ml. tissue baths containing modified Krebs-Henseleit solution at 38° C. and aerated with 95% O2 /5% CO2. Pilocarpine HCl, 1 mg/liter, was added to the solution to maintain a sustained contraction and to promote rapid recovery of the muscle. A Grass FT 0.03 force displacement transducer was used to electronically record muscle response. Concentration-relaxation relationships were obtained for each compound by logarithmically increasing bath concentration until maximum (100%) relaxation was observed. Tissues were washed between doses and allowed 30 minutes to recover. Linear regression analysis of percent response vs. log of bath concentration allowed calculation of a slope and EC50 value (concentration producing 50% of maximum relaxation) for each compound. Each dose of each compound was tested a minimum of six times.

[2] = test system: histamine-induced bronchospasm; test: Protection against histamine aerosol in guinea pigs (in vivo bronchodilator); set-up: species or system guinea pig; conditions: relative to theophylline, molar basis; for Bronchodilator activity, In-Vivo I.P. (G. Pig), relative molar activity: 15-20 min after injection; for Bronchodilator activity, In-Vivo, Oral (G. Pig), relative molar activity: 35-40 min after gavage
Procedure: With the exception of theophylline, all compounds were administered as the free base dissolved or suspended in appropriate aqueous vehicles. […] Final comparisons were always based on the calculated dose of theophylline. Because of obvious differences in molecular weights, all compounds were compared on a molar basis rather than on absolute weight.
2. Protection Against Histamine Aerosol
Adult Camm English Short Hair male albino guinea pigs (270-600 gm.) were singularly confined in an inverted glass aquarium and continuously exposed to a finely atomized mist of 0.5% histamine diphosphate produced by a Devilbiss No. 40 nebulizer and compressed air at 300 mm. Hg. pressure. The period from the start of aerosolization until the appearance of ultimate collapse or convulsions is defined as the preconvulsive time and is relatively constant in the same animal. Preconvulsive times were determined for each dose of each compound in at least six guinea pigs. Control preconvulsive times were obtained three days prior to and three days following drug administration. Percent protection afforded by each compound was calculated by the formula:
% Protection = (1- C/T) × 100
where C is the average control preconvulsive time and T is the test preconvulsive time after compound administration, both in seconds.
The PD50 of each experimental compound was determined after both intraperitoneal and oral administration. A minimum of 3 dose levels and 6 animals per dose were employed to obtain meaningful dose-response data. Protection was assessed 15-20 minutes after intraperitoneal injection and 35-40 minutes after oral gavage with a flexible plastic tube. Animals were fasted overnight prior to oral dosing. All compounds were administered in aqueous solution in concentrations commensurate to a proper volume dose. Guinea pigs were utilized between 1 and 3 times but no animal received the same compound twice in succession with a minimum of 3 days rest between doses.

[3] = prior art statement; listed as dyphylline; cited from earlier work
Solubility = conditions: for Solubility in words: water solubility, qualitative
rats = test: Acute oral diuretic evaluation in rats; assay type: in vivo, Sprague Dawley rats; conditions: relative to theophylline, molar basis
Procedure: 1. Acute Oral Evaluation in Rats
The oral diuretic effect of each compound was estimated in rats by a modification of the method described by Lipschitz et al. (J. Pharmacol. Exp. Ther. 79:97, 1943). Male Sprague Dawley rats (Carworth) weighing between 153 and 220 gms were fasted overnight. Groups of five animals each were administered three appropriate logarithmically spaced doses of each compound dissolved in saline in a constant volume dose of 25 ml/kg via an oral feeding needle. Controls received the same dose of only saline. The rats were then placed in individual metabolism cages and deprived of food and water for the remainder of the experiment. At the end of six hours, each rat was forced to expel urine in the bladder by pulling on the base of the tail. Parameters measured included urine volume, pH, and sodium and potassium excretion as measured by atomic absorption analysis. Six hour values were averaged for each dose of compound and for controls and were compared accordingly.

[4] = prior art statement; cited from earlier work
isolated rabbit heart = test: Isolated rabbit heart preparation (Langendorff); assay type: cell-based; conditions: mean for myocardial contractile force, heart rate, coronary flow; relative to theophylline
Procedure: 2. Isolated Rabbit Heart Preparation
In-vitro cardiodynamic activity of each compound except dyphylline was determined on the spontaneously beating isolated rabbit heart by the Langendorff method as modified by Anderson and Craver (J. Pharmacol. Exp. Ther., 93:135, 1948). After securing the extracted heart's ascending aorta to the apparatus, the coronaries were continuously perfused with aerated Chenoweth's solution (Chenoweth and Koelle, J. Lab. Clin. 31:600, 1946) maintained at a constant pressure-head and temperature of 38° C. The effects of logarithmically increasing doses of each compound were determined on contractile force, heart rate, and coronary flow. Drugs were dissolved in minimal volumes of Chenoweth's solution and injected into the downspout containing perfusate at 5-10 minute intervals.

Bronchodilator activity = conditions: compared with theophylline
[5] = U.S. Pat. No. 2,756,229, in comparison with theophylline; cited from earlier work

Row | Structure (SMILES) | Bronchodilator activity, In-Vitro (Tracheal Strip), relative molar activity [1] | Bronchodilator activity, In-Vivo I.P. (G. Pig), relative molar activity [2] | Bronchodilator activity, In-Vivo, Oral (G. Pig), relative molar activity [2] | Bronchodilator activity / potency in words (prior art) [3] | solubility (Solubility; water) [mg/mL] | Oral Diuretic (Rats), relative molar activity (rats) | Water solubility in words (prior art) [4] | In-Vitro; MCF, HR, CF (Rabbit Heart), mean relative molar activity (isolated rabbit heart) | solubility (Solubility; chloroform, organic solvent or mixture) [mg/mL] | Solubility in words (Solubility) | Bronchodilator potency in words (Bronchodilator activity) | Diuretic activity in words (prior art) [5]
1 | Cn1c(=O)c2c(ncn2CC(O)CO)n(C)c1=O (stereo not shown) [Compound II, 7-(2,3-dihydroxypropyl) 1,3-dimethylxanthine] | 0.16 | 0.12 | 0.13 | less bronchodilator potency than theophylline; also recorded: markedly decreases overall potency | 330 (≈ 1300 mM) | 0.71 | high water solubility | – | – | – | – | –
2 | CCCn1c(=O)c2c(ncn2CC(O)CO)n(CCC)c1=O (stereo not shown) [Compound V, 7-(2,3-dihydroxypropyl)-1,3-di-n-propylxanthine] | 0.99 | 1.56 | 0.75 | – | 100 (≈ 322 mM) | 1.05 | – | 0.93 | ~310 (≈ 999 mM) | considerably more water soluble than theophylline | comparable to theophylline as a bronchodilator | –
3 | CCCn1c(=O)c2c(ncn2CC(C)O)n(CCC)c1=O (stereo not shown) [III, 7-(2-hydroxypropyl) 1,3-di-n-propylxanthine] | 1.86 | 3.26 | 3.30 | – | 10 (≈ 34 mM) | 7.29 | – | 1.40 | – | low solubilities | more potent bronchodilators than theophylline | strong diuretics
4 | CCCn1c(=O)c2c(ncn2CCCO)n(CCC)c1=O [IV, 7-(3-hydroxypropyl)-1,3-di-n-propylxanthine] | 2.05 | 0.94 | 0.92 | – | 30 (≈ 102 mM) | 1.48 | – | 1.81 | – | low solubilities | more potent bronchodilators than theophylline | strong diuretics
